target: Ras-related protein Rab-7a (dog), GTP binding; assay: Rab7 GTP binding inhibitors, potency, dose response, biochemical, wildtype, multiplex bead flow cytometry (AID 1336); details: bead-based flow cytometry, fluorescent GTP binding to Rab7

Row | SMILES | EC50
1 | O=C1CN=C(c2ccccc2)c2cc(Br)ccc2N1Cc1cc(=O)n2ccccc2n1 | 2700 nM
2 | Cc1cc(C(=O)O)sc1CNCc1ccccc1Cl | 423 nM
3 | Cc1cc(C(=O)Oc2ccccc2C(=O)O)c(C)o1 | 810 nM
4 | N#Cc1c(-c2ccccc2)nc(SCC(=O)Nc2ccccc2)[nH]c1=O | 6420 nM
5 | O=C(O)c1ccccc1NCCc1ccc(Cl)cc1 | 339 nM
6 | COC(=O)c1cccnc1SCCc1ccccc1 | 14200 nM
7 | O=C(O)c1ccccc1Sc1ncnc2sc3c(c12)CCC3 | 2620 nM
8 | Cc1sc(-n2c(C)cc(C=C3C(=O)NC(=O)NC3=O)c2C)c(C#N)c1C | 28900 nM
9 | CC(C)C(NCc1c(Cl)cccc1Cl)C(=O)O (configuration not stated) | 2230 nM
10 | CCOc1ccc(/C=C2\SC(N3CCc4ccccc4C3)=NC2=O)cc1 | 11500 nM
11 | Cc1nn(Cc2ccccc2)c(Cl)c1C(=O)O | 3540 nM
12 | O=C(O)/C=C/c1cn(Cc2ccccc2)nc1-c1cccs1 | 2350 nM
